Assay results: patent publication US20090118332A1, “Therapeutic Agents - 551” (AstraZeneca AB, priority 2006, published 2009)

The compounds below were run against T1, human Fatty Acid Synthase (Homo sapiens, UniProt P49327) (assay: Human FAS enzyme assay (decrease in NADPH fluorescence)). Settings: % inhibition at a concentration of 100 μmolar.
T1 construct: made in house
Assay type: biochemical
In short: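 In-house human FAS was preincubated with compound and NADPH for 15 min at room temperature in 0.1 M Tris pH 7.5 with EDTA, glutathione and BSA. Malonyl CoA and acetyl CoA (500 μM and 150 μM in the added mix) were then added for 60 min. IC50 came from time-zero-subtracted NADPH fluorescence (340/460 nm).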

T1 sequence (P49327 whole entry): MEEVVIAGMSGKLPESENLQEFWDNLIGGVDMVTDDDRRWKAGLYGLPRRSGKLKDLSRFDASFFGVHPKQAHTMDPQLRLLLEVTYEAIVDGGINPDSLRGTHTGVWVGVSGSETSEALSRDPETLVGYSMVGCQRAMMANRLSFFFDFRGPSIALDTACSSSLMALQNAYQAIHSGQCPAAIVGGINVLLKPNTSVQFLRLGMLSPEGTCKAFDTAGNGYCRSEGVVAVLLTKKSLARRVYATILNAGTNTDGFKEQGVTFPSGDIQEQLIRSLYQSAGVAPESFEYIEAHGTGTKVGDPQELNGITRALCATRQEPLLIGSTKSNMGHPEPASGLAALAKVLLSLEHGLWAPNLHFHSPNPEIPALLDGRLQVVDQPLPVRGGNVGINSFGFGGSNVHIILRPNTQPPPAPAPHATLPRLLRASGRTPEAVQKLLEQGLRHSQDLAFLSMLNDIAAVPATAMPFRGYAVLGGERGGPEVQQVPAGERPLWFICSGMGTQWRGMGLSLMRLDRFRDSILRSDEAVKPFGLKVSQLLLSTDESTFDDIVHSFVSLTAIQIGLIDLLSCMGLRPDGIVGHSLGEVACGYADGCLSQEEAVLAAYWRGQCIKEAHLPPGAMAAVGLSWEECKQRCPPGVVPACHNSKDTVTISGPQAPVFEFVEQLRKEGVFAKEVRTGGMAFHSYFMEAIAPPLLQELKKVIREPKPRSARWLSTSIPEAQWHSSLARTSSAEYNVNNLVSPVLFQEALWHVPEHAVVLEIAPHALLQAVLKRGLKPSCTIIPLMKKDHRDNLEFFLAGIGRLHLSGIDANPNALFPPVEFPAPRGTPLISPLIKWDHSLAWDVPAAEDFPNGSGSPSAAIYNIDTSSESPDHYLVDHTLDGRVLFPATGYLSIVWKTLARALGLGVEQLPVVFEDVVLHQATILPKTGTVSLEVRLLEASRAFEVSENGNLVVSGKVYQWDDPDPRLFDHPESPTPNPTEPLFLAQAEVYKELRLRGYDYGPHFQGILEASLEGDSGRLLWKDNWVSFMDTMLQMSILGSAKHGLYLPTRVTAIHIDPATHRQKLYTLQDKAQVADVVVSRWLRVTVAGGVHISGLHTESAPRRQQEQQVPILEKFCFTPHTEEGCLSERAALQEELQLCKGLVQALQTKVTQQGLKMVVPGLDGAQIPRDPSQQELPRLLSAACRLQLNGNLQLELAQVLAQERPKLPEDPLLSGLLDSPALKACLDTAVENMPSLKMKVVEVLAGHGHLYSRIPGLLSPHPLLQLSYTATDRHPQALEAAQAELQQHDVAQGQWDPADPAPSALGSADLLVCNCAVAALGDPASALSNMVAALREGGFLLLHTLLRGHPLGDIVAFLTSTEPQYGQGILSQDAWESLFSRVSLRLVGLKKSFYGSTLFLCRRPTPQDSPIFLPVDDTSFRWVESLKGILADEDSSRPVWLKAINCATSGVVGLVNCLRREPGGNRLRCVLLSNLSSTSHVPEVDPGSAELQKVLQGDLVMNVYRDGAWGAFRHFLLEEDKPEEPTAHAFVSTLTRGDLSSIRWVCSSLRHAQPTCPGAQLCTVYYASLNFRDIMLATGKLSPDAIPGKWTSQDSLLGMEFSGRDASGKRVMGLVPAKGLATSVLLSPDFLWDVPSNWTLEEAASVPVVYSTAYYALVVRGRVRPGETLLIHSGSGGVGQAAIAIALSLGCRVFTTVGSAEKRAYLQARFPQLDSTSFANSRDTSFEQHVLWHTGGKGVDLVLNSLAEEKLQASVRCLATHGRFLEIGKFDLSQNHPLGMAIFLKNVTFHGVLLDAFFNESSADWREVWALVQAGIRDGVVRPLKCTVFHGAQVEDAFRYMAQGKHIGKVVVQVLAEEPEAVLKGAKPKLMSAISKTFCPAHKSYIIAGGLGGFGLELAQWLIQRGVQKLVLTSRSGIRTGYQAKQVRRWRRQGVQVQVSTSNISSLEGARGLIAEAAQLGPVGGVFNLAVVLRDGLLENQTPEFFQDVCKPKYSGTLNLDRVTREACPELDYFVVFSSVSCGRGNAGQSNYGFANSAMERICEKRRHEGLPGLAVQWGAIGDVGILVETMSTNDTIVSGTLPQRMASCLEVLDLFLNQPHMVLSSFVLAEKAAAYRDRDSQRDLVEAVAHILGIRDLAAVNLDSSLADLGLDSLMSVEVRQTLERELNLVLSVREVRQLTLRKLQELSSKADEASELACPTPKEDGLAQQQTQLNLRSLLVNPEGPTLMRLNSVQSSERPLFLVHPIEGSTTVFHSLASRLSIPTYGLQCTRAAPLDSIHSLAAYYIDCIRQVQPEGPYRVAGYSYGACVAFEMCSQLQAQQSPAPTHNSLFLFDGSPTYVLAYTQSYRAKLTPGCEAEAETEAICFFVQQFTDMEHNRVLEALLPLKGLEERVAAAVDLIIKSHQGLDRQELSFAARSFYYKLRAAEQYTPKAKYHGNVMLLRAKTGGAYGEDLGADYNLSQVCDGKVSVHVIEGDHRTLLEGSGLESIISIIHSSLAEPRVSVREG

inhibition at 100 µM [%]	Compound
106	Cc1ccc(C(=O)N2CCC(c3ccc(C#N)cc3)CC2)cc1NC(=O)NC1CCN(C(=O)N(C)C)CC1 [Example 284, 4-[[5-[4-(4-cyanophenyl)piperidine-1-carbonyl]-2-methyl-phenyl]carbamoylamino]-N,N-dimethyl-piperidine-1-carboxamide]
98.7	Cc1ccc(C(=O)N2CCC(c3ccc(C#N)cc3)CC2)cc1NC(=O)NC1CCN(S(=O)(=O)N(C)C)CC1 [Example 285, 1-[5-[4-(4-cyanophenyl)piperidine-1-carbonyl]-2-methyl-phenyl]-3-[1-(dimethylsulfamoyl)-4-piperidyl]urea]
99.6	Cc1ccc(C(=O)N2CCC(c3ccc(C#N)cc3)CC2)cc1NC(=O)NC1CCCNC1 (stereo not drawn) [Example 286, 1-[5-[4-(4-cyanophenyl)piperidine-1-carbonyl]-2-methyl-phenyl]-3-(3-piperidyl)urea]
92.4	Cc1ccc(C(=O)N2CCC(c3ccc(C#N)cc3)CC2)cc1NC(=O)NC1CCC1 [Example 287, 1-[5-[4-(4-cyanophenyl)piperidine-1-carbonyl]-2-methyl-phenyl]-3-cyclobutyl-urea]
99.8	Cc1ccc(C(=O)N2CCC(c3ccc(C#N)cc3)CC2)cc1NC(=O)NCC1CC1 [Example 288, 1-[5-[4-(4-cyanophenyl)piperidine-1-carbonyl]-2-methyl-phenyl]-3-(cyclopropylmethyl)urea]
91.2	Cc1ccc(C(=O)N2CCC(c3ccc(C#N)cc3)CC2)cc1NC(=O)NCc1cc[nH]n1 [Example 289, 1-[5-[4-(4-cyanophenyl)piperidine-1-carbonyl]-2-methyl-phenyl]-3-(1H-pyrazol-3-ylmethyl)urea]
102	Cc1ccc(C(=O)N2CCC(c3ccc(C#N)cc3)CC2)cc1NC(=O)NCc1ccn(C)n1 [Example 290, 1-[5-[4-(4-cyanophenyl)piperidine-1-carbonyl]-2-methyl-phenyl]-3-[(1-methylpyrazol-3-yl)methyl]urea]
89.6	Cc1ccc(C(=O)N2CCC(c3ccc(C#N)cc3)CC2)cc1NC(=O)NCc1ncccn1 [Example 291, 1-[5-[4-(4-cyanophenyl)piperidine-1-carbonyl]-2-methyl-phenyl]-3-(pyrimidin-2-ylmethyl)urea]
95.6	Cc1cc(CNC(=O)Nc2cc(C(=O)N3CCC(c4ccc(C#N)cc4)CC3)ccc2C)[nH]n1 [Example 292, 1-[5-[4-(4-cyanophenyl)piperidine-1-carbonyl]-2-methyl-phenyl]-3-[(5-methyl-2H-pyrazol-3-yl)methyl]urea]
92.5	Cc1ccc(C(=O)N2CCC(c3ccc(C#N)cc3)CC2)cc1NC(=O)NCc1cnccn1 [Example 293, 1-[5-[4-(4-cyanophenyl)piperidine-1-carbonyl]-2-methyl-phenyl]-3-(pyrazin-2-ylmethyl)urea]
92.2	Cc1cc(C)c(C(=O)N2CCC(c3ccc(C#N)cc3)CC2)cc1NC(=O)NCCCS(C)(=O)=O [Example 294, 1-[5-[4-(4-cyanophenyl)piperidine-1-carbonyl]-2,4-dimethyl-phenyl]-3-(3-methylsulfonylpropyl)urea]
97.2	CCC(=O)N1CCCC(NC(=O)Nc2cc(C(=O)N3CCC(c4ccc(C#N)cc4)CC3)ccc2C)C1 (stereo not drawn) [Example 295, 3-[5-[4-(4-cyanophenyl)piperidine-1-carbonyl]-2-methyl-phenyl]-1-(1-propanoyl-3-piperidyl)urea]
103	Cc1ccc(C(=O)N2CCC(c3ccc(C#N)cc3)CC2)cc1NC(=O)NC1CCCN(S(C)(=O)=O)C1 (stereo not drawn) [Example 296, 1-[5-[4-(4-cyanophenyl)piperidine-1-carbonyl]-2-methyl-phenyl]-3-(1-methylsulfonyl-3-piperidyl)urea]
97.9	CCS(=O)(=O)N1CCCC(NC(=O)Nc2cc(C(=O)N3CCC(c4ccc(C#N)cc4)CC3)ccc2C)C1 (stereo not drawn) [Example 297, 3-[5-[4-(4-cyanophenyl)piperidine-1-carbonyl]-2-methyl-phenyl]-1-(1-ethylsulfonyl-3-piperidyl)urea]
95.8	CCc1ccc(C(=O)N2CCC(c3ccc(C#N)cc3)CC2)cc1NC(=O)NC1COC1 [Example 298, 1-[5-[4-(4-cyanophenyl)piperidine-1-carbonyl]-2-ethyl-phenyl]-3-(oxetan-3-yl)urea]
95.1	Cc1ccc(C(=O)N2CCC(c3ccc(C#N)cc3)CC2)cc1NC(=O)NC1COC1 [Example 299, 1-[5-[4-(4-cyanophenyl)piperidine-1-carbonyl]-2-methyl-phenyl]-3-(oxetan-3-yl)urea]
84.3	Cc1ccc(C(=O)N2CCC(c3ccc(C#N)cc3)CC2)cc1NC(=O)NC1CNC1 [Example 300, 3-(azetidin-3-yl)-1-[5-[4-(4-cyanophenyl)piperidine-1-carbonyl]-2-methyl-phenyl]urea]

inhibition at 100 µM [%]	Compound
96.6	Cc1ccc(C(=O)N2CCC(c3ccc(C#N)cc3)CC2)cc1NC(=O)NC1CN(C(=O)C(C)C)C1 [Example 301, 1-[5-[4-(4-cyanophenyl)piperidine-1-carbonyl]-2-methyl-phenyl]-3-[1-(2-methylpropanoyl)azetidin-3-yl]urea]
93.9	Cc1ccc(C(=O)N2CCC(c3ccc(C#N)cc3)CC2)cc1NC(=O)NC1CN(S(C)(=O)=O)C1 [Example 302, 1-[5-[4-(4-cyanophenyl)piperidine-1-carbonyl]-2-methyl-phenyl]-3-(1-methylsulfonylazetidin-3-yl)urea]
93.5	Cc1ccc(C(=O)N2CCC(c3ccc(C#N)cc3)CC2)cc1NC(=O)NC1CN(S(=O)(=O)N(C)C)C1 [Example 303, 1-[5-[4-(4-cyanophenyl)piperidine-1-carbonyl]-2-methyl-phenyl]-3-[1-(dimethylsulfamoyl)azetidin-3-yl]urea]
84.7	Cc1ccc(C(=O)N2CCC(c3ccc(C#N)cc3)CC2)cc1NC(=O)N1CC(N)C1 [Example 306, 3-amino-N-[5-[4-(4-cyanophenyl)piperidine-1-carbonyl]-2-methyl-phenyl]azetidine-1-carboxamide]
94.5	CC(=O)N1CC(NC(=O)Nc2cc(C(=O)N3CCC(c4ccc(C#N)cc4)CC3)ccc2C)C1 [Example 310, 3-(1-acetylazetidin-3-yl)-1-[5-[4-(4-cyanophenyl)piperidine-1-carbonyl]-2-methyl-phenyl]urea]
105	CCS(=O)(=O)N1CC(NC(=O)Nc2cc(C(=O)N3CCC(c4ccc(C#N)cc4)CC3)ccc2C)C1 [Example 311, 3-[5-[4-(4-cyanophenyl)piperidine-1-carbonyl]-2-methyl-phenyl]-1-(1-ethylsulfonylazetidin-3-yl)urea]
88.8	CC(=O)NC1CN(C(=O)Nc2cc(C(=O)N3CCC(c4ccc(C#N)cc4)CC3)ccc2C)C1 [Example 312, 3-acetamido-N-[5-[4-(4-cyanophenyl)piperidine-1-carbonyl]-2-methyl-phenyl]azetidine-1-carboxamide]
90.5	Cc1ccc(C(=O)N2CCC(c3ccc(C#N)cc3)CC2)cc1NC(=O)N1CC(NS(C)(=O)=O)C1 [Example 313, N-[5-[4-(4-cyanophenyl)piperidine-1-carbonyl]-2-methyl-phenyl]-3-methanesulfonamido-azetidine-1-carboxamide]
87.4	Cc1ccc(C(=O)N2CCC(c3ccc(C#N)cc3)CC2)cc1NC(=O)N1CC(NS(=O)(=O)N(C)C)C1 [Example 314, N-[5-[4-(4-cyanophenyl)piperidine-1-carbonyl]-2-methyl-phenyl]-3-(dimethylsulfamoylamino)azetidine-1-carboxamide]
99.6	Cc1ccc(C(=O)N2CCC(c3ccc(C#N)cc3)CC2)cc1NC(=O)N[C@H]1CC[C@H](NC(=O)OC(C)(C)C)C1 [Example 316, tert-butyl N-[(1S,3S)-3-[[5-[4-(4-cyanophenyl)piperidine-1-carbonyl]-2-methyl-phenyl]carbamoylamino]cyclopentyl]carbamate]
93.9	Cc1ccc(C(=O)N2CCC(c3ccc(C#N)cc3)CC2)cc1NC(=O)N[C@H]1CC[C@H](N)C1 [Example 318, 3-[(1S,3S)-3-aminocyclopentyl]-1-[5-[4-(4-cyanophenyl)piperidine-1-carbonyl]-2-methyl-phenyl]urea]
94.4	Cc1ccc(C(=O)N2CCC(c3ccc(C#N)cc3)CC2)cc1NC(=O)N[C@H]1CC[C@H](NS(C)(=O)=O)C1 [Example 320, 1-[5-[4-(4-cyanophenyl)piperidine-1-carbonyl]-2-methyl-phenyl]-3-[(1S,3S)-3-methanesulfonamidocyclopentyl]urea]
96.7	CC(=O)N[C@H]1CC[C@H](NC(=O)Nc2cc(C(=O)N3CCC(c4ccc(C#N)cc4)CC3)ccc2C)C1 [Example 321, N-[(1S,3S)-3-[[5-[4-(4-cyanophenyl)piperidine-1-carbonyl]-2-methyl-phenyl]carbamoylamino]cyclopentyl]acetamide]
90.5	Cc1ccc(C(=O)N2CCC(c3ccc(C#N)cc3)CC2)cc1NC(=O)N1CCN(S(C)(=O)=O)CC1 [Example 322, N-[5-[4-(4-cyanophenyl)piperidine-1-carbonyl]-2-methyl-phenyl]-4-methylsulfonyl-piperazine-1-carboxamide]
94	Cc1ccc(C(=O)N2CCC(c3ccc(C#N)cc3)CC2)cc1NC(=O)N[C@H]1CC[C@H](NS(=O)(=O)N(C)C)C1 [Example 323, 1-[5-[4-(4-cyanophenyl)piperidine-1-carbonyl]-2-methyl-phenyl]-3-[(1S,3S)-3-(dimethylsulfamoylamino)cyclopentyl]urea]
97.1	CCS(=O)(=O)N[C@H]1CC[C@H](NC(=O)Nc2cc(C(=O)N3CCC(c4ccc(C#N)cc4)CC3)ccc2C)C1 [Example 324, 3-[5-[4-(4-cyanophenyl)piperidine-1-carbonyl]-2-methyl-phenyl]-1-[(1S,3S)-3-(ethylsulfonylamino)cyclopentyl]urea]
